Measured values published in PubChem BioAssay (NCI).
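Cultured in 96-well plates, cells were exposed to test compound for 48 hours across five concentrations. GI50 = concentration required for 50% inhibition of growth. TGI: concentration producing complete growth inhibition.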

How the values were obtained:
Experiment in all cases: NCI anticancer screen, dose series, 48 h
RXF-631 renal = test system: RXF-631 renal
KM20L2 colon = test system: KM20L2 colon
HOP-18 NSCLC = test system: HOP-18 NSCLC
DLD-1 colon = test system: DLD-1 colon
SNB-78 CNS = test system: SNB-78 CNS
MDA-N = test system: MDA-N
XF 498 CNS = test system: XF 498 CNS

Structure (SMILES)	TGI (RXF-631 renal)	TGI (KM20L2 colon)	TGI (HOP-18 NSCLC)	TGI (DLD-1 colon)	TGI (SNB-78 CNS)	TGI (MDA-N)	TGI (XF 498 CNS)	GI50 (MDA-N)
CN(CCS(=O)(=O)N1C(=O)C2CCCN2C(=O)[C@@H]1Cc1ccccc1)C(=O)OCc1ccccc1 (stereo partly specified)	> 100 µM	> 100 µM	> 100 µM	> 100 µM	> 100 µM	–	–	–
O=C(O)CSc1n[nH]c(=O)[nH]c1=O	–	–	–	–	–	> 100 µM	–	–
O=C1[C@H]2ON(c3ccccc3)C(c3ccc([N+](=O)[O-])cc3)[C@H]2C(=O)N1c1ccc(Cc2ccc(N3C(=O)[C@@H]4ON(c5ccccc5)C(c5ccc([N+](=O)[O-])cc5)[C@@H]4C3=O)cc2)cc1 (stereo partly specified)	> 100 µM	> 100 µM	> 100 µM	> 100 µM	> 100 µM	–	–	–
CC1=N/C(=C/c2ccc3c(c2)OCO3)C(=O)O1	> 100 µM	> 100 µM	> 100 µM	–	> 100 µM	–	> 100 µM	–
CCC[C@H]1O[C@@H]2CC(=O)O[C@@H]2C2=C1C(=O)C=CC2=O	–	43.8 µM	31.9 µM	35.8 µM	45.7 µM	–	–	–
CC(C)(C)C1=CC(=C(P(=O)(O)O)P(=O)(O)O)C=C(C(C)(C)C)C1=O	> 50 µM	> 50 µM	> 50 µM	> 50 µM	> 50 µM	–	–	–
C=C[C@@H](C)[C@]1(C(=O)OC)CCCC12OCCO2	–	> 100 µM	> 100 µM	> 100 µM	–	–	> 100 µM	–
COc1ccc(Cc2c3cc(O)c(=O)cc-3ccn2C)cc1	> 100 µM	> 100 µM	> 100 µM	> 100 µM	> 100 µM	–	> 100 µM	–
C/C(=N\N=C(N)N)C(CN1CCCCC1)C(c1ccccc1)c1c(O)c2ccccc2oc1=O (stereo unspecified)	> 100 µM	> 100 µM	–	> 100 µM	–	–	> 100 µM	–
Cc1c(-c2cnccn2)ssc1=S	–	–	–	–	–	> 100 µM	–	–
CN(Cc1ccccc1)Cn1ccnc1	–	–	–	–	–	> 100 µM	–	–
Cc1c(C)c2ccc3oc4ccccc4c3c2oc1=O	> 100 µM	> 100 µM	> 100 µM	> 100 µM	> 100 µM	–	–	–
OCC1C(OCc2ccccc2)C(OCc2ccccc2)C(OCc2ccccc2)CN1Cc1ccccc1 (stereo unspecified)	–	–	–	–	–	> 100 µM	–	–
CCOC(OC(C)=O)[C@@H]1C=C[C@H](C)N(c2ccc([N+](=O)[O-])cc2)O1 (stereo partly specified)	25.7 µM	34.3 µM	17.8 µM	11.1 µM	60.4 µM	–	32.6 µM	–
CSc1ccc2c(cc1=O)[C@@H](NC(=O)c1cccc([N+](=O)[O-])c1)CCc1cc(O)c(O)c(O)c1-2	> 100 µM	56.5 µM	> 100 µM	> 100 µM	–	–	–	–
CC(C)N(C(=O)C12C3C4C5(C#N)C3C1(C#N)C5C42C#N)C(C)C (stereo unspecified)	–	> 100 µM	> 100 µM	> 100 µM	> 100 µM	–	> 100 µM	–
O=C(CCC(=O)Nc1ccc(Cl)c(Cl)c1)Cc1nc2ccccc2o1	> 100 µM	> 100 µM	> 100 µM	–	> 100 µM	–	–	–
COc1cc2cc(OC(C)=O)c3cc4c(cc3c2c(OC)c1OC)OCO4	> 100 µM	> 100 µM	> 100 µM	> 100 µM	> 100 µM	–	> 100 µM	–
Cc1nc2sccn2c1C(=O)NN	> 100 µM	> 100 µM	> 100 µM	> 100 µM	–	–	> 100 µM	–

Structure (SMILES)	TGI (RXF-631 renal)	TGI (KM20L2 colon)	TGI (HOP-18 NSCLC)	TGI (DLD-1 colon)	TGI (SNB-78 CNS)	TGI (MDA-N)	TGI (XF 498 CNS)	GI50 (MDA-N)
O=C(C(=O)c1cc2ccccc2[nH]1)c1cc2ccccc2[nH]1	> 347 µM	> 347 µM	–	> 347 µM	> 347 µM	–	336 µM	–
Oc1ccc(C=Nc2ccccc2O)cc1	–	–	–	–	–	33.8 µM	–	–
COC(COC(N)=O)C1=C(N2CC2)C(=O)C(C)=C(N2CC2)C1=O (stereo unspecified)	–	0.525 µM	0.902 µM	1.03 µM	8.44 µM	0.269 µM	0.415 µM	–
NCCSSCc1ccccc1CSSCCN	> 100 µM	> 100 µM	> 100 µM	> 100 µM	> 100 µM	–	> 100 µM	–
CCc1cccc(C(C)C)c1NC(=O)C(=O)C1C(=O)Nc2ccccc2S1=O (stereo unspecified)	–	–	–	–	–	> 100 µM	–	–
NC(=O)NNC(=O)CCn1[nH]c(=O)c(Cl)c(Cl)c1=O	> 100 µM	> 100 µM	> 100 µM	> 100 µM	> 100 µM	–	–	–
O=C(/C=C\c1ccccc1O)c1ccc(O)cc1O	> 100 µM	> 100 µM	> 100 µM	> 100 µM	> 100 µM	–	–	–
COc1ccc(Nc2nc3cc(N)cc(N)c3nc2-c2ccccc2)cc1	–	–	–	–	–	36 µM	–	21.6 µM
Cc1ccc(C)c(N2C(=O)C(=O)C(c3nc4ccccc4s3)/C(=N/N)C2=O)c1 (stereo unspecified)	–	> 100 µM	> 100 µM	> 100 µM	> 100 µM	–	> 100 µM	–
C=CSCCC(N)C(=O)O (stereo unspecified)	> 100 µM	> 100 µM	> 100 µM	> 100 µM	> 100 µM	–	> 100 µM	–
COC1CCC(OS(C)(=O)=O)C(CO)O1 (stereo unspecified)	–	> 100 µM	–	> 100 µM	–	–	> 100 µM	–
C=CCNC(=O)NCCCCC(NC(C)=O)C(=O)NCc1ccccc1 (stereo unspecified)	–	> 100 µM	> 100 µM	–	–	–	> 100 µM	–
Cc1nc([N+](=O)[O-])cn1-c1nc2ccccn2c1[N+](=O)[O-]	–	–	–	–	–	> 100 µM	–	–
CC1(C)OC2C(CCP(=O)(O)O)OC(c3nc(C(N)=O)cs3)C2O1 (stereo unspecified)	> 100 µM	> 100 µM	> 100 µM	> 100 µM	–	–	–	–
O=C(O)CCNCC(=O)O	–	–	–	–	–	> 100 µM	–	–
C=C(CCCCC)CN1CCCC1C(C)=O (stereo unspecified)	–	> 100 µM	> 94.8 µM	> 100 µM	> 76.6 µM	–	41.7 µM	–
C=C(C)[C@H]1CC[C@@]2(C)C(C1)[C@H](C)CC[C@@H]2O (stereo partly specified)	> 100 µM	> 100 µM	> 100 µM	> 100 µM	> 100 µM	–	> 100 µM	–
COC(=O)c1cc2c(=O)n(C)c3ccccc3n2c1C(=O)OC	> 100 µM	> 100 µM	–	> 100 µM	> 100 µM	–	51.3 µM	–
CC(=O)Nc1ccc(/C=C/C(=O)c2sc(-c3cccnc3)nc2C)cc1	–	> 100 µM	> 100 µM	> 100 µM	> 100 µM	–	–	–
